Laboratory results as given in patent publication US10428083B2, “Heterocyclylmethyl-thienouracile as antagonists of the adenosine-A2B-receptor” (BAYER PHARMA AKTIENGESELLSCHAFT, priority 2015, dated 2019).

These compounds were tested against human adenosine A2b receptor (Homo sapiens (Human), UniProt P29275) (assay: Cellular in vitro reporter gene test for A2b receptor activity (CHO-K1, CRE-luciferase, NECA stimulation)). Conditions: recombinant CHO-K1 cell line, CRE-luciferase reporter, antagonism of EC50 concentration of NECA; in some cases means of several determinations, rounded to two significant figures; read-out: A2b receptor IC50.
Assay type: cell-based
Procedure, shortened: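 CHO-K1 cells with CRE-driven luciferase; antagonists co-incubated with NECA at its EC50, determined in a pre-experiment on each test day. Luciferase read by luminescence 3 h after NECA addition.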

Chain of human adenosine A2b receptor (P29275 whole entry): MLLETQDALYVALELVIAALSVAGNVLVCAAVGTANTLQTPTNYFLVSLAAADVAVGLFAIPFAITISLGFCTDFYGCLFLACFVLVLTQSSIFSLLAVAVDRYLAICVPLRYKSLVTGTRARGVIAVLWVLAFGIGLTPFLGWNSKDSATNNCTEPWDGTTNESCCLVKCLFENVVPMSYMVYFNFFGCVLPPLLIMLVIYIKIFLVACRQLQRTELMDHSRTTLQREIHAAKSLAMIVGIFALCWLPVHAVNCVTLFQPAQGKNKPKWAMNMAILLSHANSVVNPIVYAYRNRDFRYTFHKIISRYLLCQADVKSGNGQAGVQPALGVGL

Compound	IC50
COCCn1c(=O)n(CC(C)OC)c(=O)c2c(C)c(CN3CCNC3=O)sc21 (single isomer, unassigned) [Example 234, 1-(2-Methoxyethyl)-3-(2-methoxypropyl)-5-methyl-6-[(2-oxoimidazolidin-1-yl)methyl]thieno[2,3-d]pyrimidine-2,4(1H,3H)-dione]	7.8 nM
COCCn1c(=O)n(CC(C)OC)c(=O)c2c(C)c(CN3CCNC3=O)sc21 (single isomer, unassigned) [Example 235, 1-(2-Methoxyethyl)-3-(2-methoxypropyl)-5-methyl-6-[(2-oxoimidazolidin-1-yl)methyl]thieno[2,3-d]pyrimidine-2,4(1H,3H)-dione]	38 nM
CCn1c(=O)c2c(C)c(Cn3cc[nH]c3=O)sc2n(CC2CCCO2)c1=O (single isomer, unassigned) [Example 243, 3-Ethyl-5-methyl-6-[(2-oxo-2,3-dihydro-1H-imidazol-1-yl)methyl]-1-(tetrahydrofuran-2-ylmethyl)thieno[2,3-d]pyrimidine-2,4(1H,3H)-dione]	14 nM
CCn1c(=O)c2c(C)c(Cn3cc[nH]c3=O)sc2n(CC2CCCO2)c1=O (single isomer, unassigned) [Example 244, 3-Ethyl-5-methyl-6-[(2-oxo-2,3-dihydro-1H-imidazol-1-yl)methyl]-1-(tetrahydrofuran-2-ylmethyl)thieno[2,3-d]pyrimidine-2,4(1H,3H)-dione]	13 nM
Cc1c(Cn2cc[nH]c2=O)sc2c1c(=O)n(C(C)C)c(=O)n2CC1CCCO1 (single isomer, unassigned) [Example 248, 3-Isopropyl-5-methyl-6-[(2-oxo-2,3-dihydro-1H-imidazol-1-yl)methyl]-1-(tetrahydrofuran-2-ylmethyl)thieno[2,3-d]pyrimidine-2,4(1H,3H)-dione]	5.1 nM
Cc1c(Cn2cc[nH]c2=O)sc2c1c(=O)n(C(C)C)c(=O)n2CC1CCCO1 (single isomer, unassigned) [Example 249, 3-Isopropyl-5-methyl-6-[(2-oxo-2,3-dihydro-1H-imidazol-1-yl)methyl]-1-(tetrahydrofuran-2-ylmethyl)thieno[2,3-d]pyrimidine-2,4(1H,3H)-dione]	41 nM
CCn1c(=O)c2c(C)c(CN3CCNC3=NC#N)sc2n(CC2CCO2)c1=O (single isomer, unassigned) [Example 257, [1-{[3-Ethyl-5-methyl-1-(oxetan-2-ylmethyl)-2,4-dioxo-1,2,3,4-tetrahydrothieno[2,3-d]pyrimidin-6-yl]methyl}imidazolidin-2-ylidene]cyanamide]	7.1 nM
CCn1c(=O)c2c(C)c(CN3CCNC3=NC#N)sc2n(CC2CCO2)c1=O (single isomer, unassigned) [Example 258, [1-{[3-Ethyl-5-methyl-1-(oxetan-2-ylmethyl)-2,4-dioxo-1,2,3,4-tetrahydrothieno[2,3-d]pyrimidin-6-yl]methyl}imidazolidin-2-ylidene]cyanamide]	33 nM
Cc1c(CN2CCNC2=NC#N)sc2c1c(=O)n(C(C)C)c(=O)n2CC1CCO1 (single isomer, unassigned) [Example 265, [1-{[3-Isopropyl-5-methyl-1-(oxetan-2-ylmethyl)-2,4-dioxo-1,2,3,4-tetrahydrothieno[2,3-d]pyrimidin-6-yl]methyl}imidazolidin-2-ylidene]cyanamide]	14 nM
Cc1c(CN2CCNC2=NC#N)sc2c1c(=O)n(C(C)C)c(=O)n2CC1CCO1 (single isomer, unassigned) [Example 266, [1-{[3-Isopropyl-5-methyl-1-(oxetan-2-ylmethyl)-2,4-dioxo-1,2,3,4-tetrahydrothieno[2,3-d]pyrimidin-6-yl]methyl}imidazolidin-2-ylidene]cyanamide]	75 nM
COCCn1c(=O)c2c(C)c(Cn3[nH]ccc3=O)sc2n(CC2CCCO2)c1=O (single isomer, unassigned) [Example 290, 3-(2-Methoxyethyl)-5-methyl-6-[(5-oxo-2,5-dihydro-1H-pyrazol-1-yl)methyl]-1-(tetrahydrofuran-2-ylmethyl)thieno[2,3-d]pyrimidine-2,4(1H,3H)-dione]	400 nM
COCCn1c(=O)c2c(C)c(Cn3[nH]ccc3=O)sc2n(CC2CCCO2)c1=O (single isomer, unassigned) [Example 291, 3-(2-Methoxyethyl)-5-methyl-6-[(5-oxo-2,5-dihydro-1H-pyrazol-1-yl)methyl]-1-(tetrahydrofuran-2-ylmethyl)thieno[2,3-d]pyrimidine-2,4(1H,3H)-dione]	190 nM

Results, then the compound that gave them:

IC50	Compound
18 nM	Cc1c(CN2CCNC2=O)sc2c1c(=O)n(CC(C)C)c(=O)n2CC1CCCO1 (single isomer, unassigned) [Example 197, 3-Isobutyl-5-methyl-6-[(2-oxoimidazolidin-1-yl)methyl]-1-(tetrahydrofuran-2-ylmethyl)thieno[2,3-d]pyrimidine-2,4(1H,3H)-dione]
8.9 nM	Cc1c(CN2CCNC2=O)sc2c1c(=O)n(CC(C)C)c(=O)n2CC1CCCO1 (single isomer, unassigned) [Example 198, 3-Isobutyl-5-methyl-6-[(2-oxoimidazolidin-1-yl)methyl]-1-(tetrahydrofuran-2-ylmethyl)thieno[2,3-d]pyrimidine-2,4(1H,3H)-dione]
43 nM	Cc1c(CN2CCNC2=O)sc2c1c(=O)n(CC(F)(F)F)c(=O)n2CC1CCO1 (single isomer, unassigned) [Example 207, 5-Methyl-1-(oxetan-2-ylmethyl)-6-[(2-oxoimidazolidin-1-yl)methyl]-3-(2,2,2-trifluoroethyl)thieno[2,3-d]pyrimidine-2,4(1H,3H)-dione]
8.9 nM	Cc1c(CN2CCNC2=O)sc2c1c(=O)n(CC(F)(F)F)c(=O)n2CC1CCO1 (single isomer, unassigned) [Example 208, 5-Methyl-1-(oxetan-2-ylmethyl)-6-[(2-oxoimidazolidin-1-yl)methyl]-3-(2,2,2-trifluoroethyl)thieno[2,3-d]pyrimidine-2,4(1H,3H)-dione]
9.1 nM	Cc1c(CN2CCNC2=O)sc2c1c(=O)n(CC(F)(F)F)c(=O)n2CC1CCCO1 (single isomer, unassigned) [Example 210, 5-Methyl-6-[(2-oxoimidazolidin-1-yl)methyl]-1-(tetrahydrofuran-2-ylmethyl)-3-(2,2,2-trifluoroethyl)thieno[2,3-d]pyrimidine-2,4(1H,3H)-dione]
17 nM	Cc1c(CN2CCNC2=O)sc2c1c(=O)n(CC(F)(F)F)c(=O)n2CC1CCCO1 (single isomer, unassigned) [Example 211, 5-Methyl-6-[(2-oxoimidazolidin-1-yl)methyl]-1-(tetrahydrofuran-2-ylmethyl)-3-(2,2,2-trifluoroethyl)thieno[2,3-d]pyrimidine-2,4(1H,3H)-dione]
79 nM	Cc1c(CN2CCNC2=O)sc2c1c(=O)n(CC(F)F)c(=O)n2CC1CCO1 (single isomer, unassigned) [Example 217, 3-(2,2-Difluoroethyl)-5-methyl-1-(oxetan-2-ylmethyl)-6-[(2-oxoimidazolidin-1-yl)methyl]thieno[2,3-d]pyrimidine-2,4(1H,3H)-dione]
22 nM	Cc1c(CN2CCNC2=O)sc2c1c(=O)n(CC(F)F)c(=O)n2CC1CCO1 (single isomer, unassigned) [Example 218, 3-(2,2-Difluoroethyl)-5-methyl-1-(oxetan-2-ylmethyl)-6-[(2-oxoimidazolidin-1-yl)methyl]thieno[2,3-d]pyrimidine-2,4(1H,3H)-dione]
15 nM	Cc1c(CN2CCNC2=O)sc2c1c(=O)n(CC(F)F)c(=O)n2CC1CCCO1 (single isomer, unassigned) [Example 220, 3-(2,2-Difluoroethyl)-5-methyl-6-[(2-oxoimidazolidin-1-yl)methyl]-1-(tetrahydrofuran-2-ylmethyl)thieno[2,3-d]pyrimidine-2,4(1H,3H)-dione]
29 nM	Cc1c(CN2CCNC2=O)sc2c1c(=O)n(CC(F)F)c(=O)n2CC1CCCO1 (single isomer, unassigned) [Example 221, 3-(2,2-Difluoroethyl)-5-methyl-6-[(2-oxoimidazolidin-1-yl)methyl]-1-(tetrahydrofuran-2-ylmethyl)thieno[2,3-d]pyrimidine-2,4(1H,3H)-dione]
2.2 nM	CCn1c(=O)c2c(C)c(CN3CCNC3=NC#N)sc2n(CC2CCCO2)c1=O (single isomer, unassigned) [Example 260, [1-{[3-Ethyl-5-methyl-2,4-dioxo-1-(tetrahydrofuran-2-ylmethyl)-1,2,3,4-tetrahydrothieno[2,3-d]pyrimidin-6-yl]methyl}imidazolidin-2-ylidene]cyanamide]
9.9 nM	CCn1c(=O)c2c(C)c(CN3CCNC3=NC#N)sc2n(CC2CCCO2)c1=O (single isomer, unassigned) [Example 261, [1-{[3-Ethyl-5-methyl-2,4-dioxo-1-(tetrahydrofuran-2-ylmethyl)-1,2,3,4-tetrahydrothieno[2,3-d]pyrimidin-6-yl]methyl}imidazolidin-2-ylidene]cyanamide]
91 nM	Cc1c(Cn2[nH]ccc2=O)sc2c1c(=O)n(CC(F)(F)F)c(=O)n2CC1CCCO1 (single isomer, unassigned) [Example 285, 5-Methyl-6-[(5-oxo-2,5-dihydro-1H-pyrazol-1-yl)methyl]-1-(tetrahydrofuran-2-ylmethyl)-3-(2,2,2-trifluoroethyl)thieno[2,3-d]pyrimidine-2,4(1H,3H)-dione]
220 nM	Cc1c(Cn2[nH]ccc2=O)sc2c1c(=O)n(CC(F)(F)F)c(=O)n2CC1CCCO1 (single isomer, unassigned) [Example 286, 5-Methyl-6-[(5-oxo-2,5-dihydro-1H-pyrazol-1-yl)methyl]-1-(tetrahydrofuran-2-ylmethyl)-3-(2,2,2-trifluoroethyl)thieno[2,3-d]pyrimidine-2,4(1H,3H)-dione]
